Source: patent US20240041042A1, “1-(PYRIDYL)-5-AZINYLPYRAZOLE DERIVATIVES, AND THEIR USE FOR CONTROL OF UNDESIRED PLANT GROWTH” (Bayer Aktiengesellschaft, priority 2020, published 2024)
Read-outs that look alike come from different tables or passages of the source.

How the values were obtained:
Type in all cases: in vivo
[1] = tested on: Pharbitis purpurea (PHBPU); assay: Post-emergence herbicidal action against PHBPU; conditions: dosage 320 g/ha
Outline: (§1)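 Doses of 320 g/ha or lower, suffixes a, b and c marking different dosages, were applied post-emergence at the one-leaf stage in 600 l/ha water with 0.5% additive. Damage was assessed visually after about 3 weeks in the greenhouse.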

[2] = tested on: Verconica persica (VERPE); assay: Post-emergence herbicidal action against VERPE; conditions: 320 g/ha, VERPE
Outline: as §1

[3] = tested on: Echinochloa crus-galli (ECHCG); assay: Post-emergence herbicidal action against ECHCG
Outline: as §1

Viola tricolor (VIOTR) [4] = assay: Post-emergence herbicidal action against VIOTR
Outline: as §1

[5] = tested on: Abutilon theophrasti (ABUTH); assay: Post-emergence herbicidal action against ABUTH; conditions: 320 g/ha, visual rating about 3 weeks after treatment vs untreated controls (100% = plants have died, 0% = like control plants)
Outline: as §1

[6] = tested on: Polygonum convolvulus (POLCO); assay: Pre-emergence herbicidal action against POLCO; conditions: dosage 320 g/ha
Outline: (§2)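 Application rates ran to 320 g/ha or lower, with several dosages tested on the same weeds. The compound, as wettable powder or emulsion concentrate, is sprayed pre-emergence onto soil over sown seeds; greenhouse growth follows, and effect is rated visually after roughly 3 weeks.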

[7] = tested on: Verconica persica (VERPE); assay: Pre-emergence herbicidal action against VERPE
Outline: as §2

[8] = tested on: Amaranthus retroflexus (AMARE); assay: Pre-emergence herbicidal action against AMARE; conditions: visual scoring after about 3 weeks vs untreated controls
Outline: as §2

[9] = tested on: Amaranthus retroflexus (AMARE); assay: Post-emergence herbicidal action against AMARE
Outline: as §1

Zea mays (ZEAMX) [10] = conditions: pre-emergence, crop plant compatibility, in comparison to untreated controls
From the text: Seeds of monocotyledonous and dicotyledonous weed plants and crop plants are placed in plastic or organic planting pots and covered with soil. The compounds of the invention, formulated in the form of wettable powders (WP) or as emulsion concentrates (EC), are then applied to the surface of the covering soil as aqueous suspension or emulsion with addition of 0.5% additive at a water application rate equivalent to 600 l/ha. After the treatment, the pots are placed in a greenhouse and kept under good growth conditions for the trial plants. After about 3 weeks, the effect of the preparations is scored visually in comparison with untreated controls as percentages. For example, 100% activity=the plants have died, 0% activity=like control plants.
The observed effects on selected crop plants are reported here in comparison to the untreated controls (values in %). The appendices “a” “b” and “c” give differentiation by dosage used with otherwise the same crop plants tested.

[11] = tested on: Echinochloa crus-galli (ECHCG); assay: Pre-emergence herbicidal action against ECHCG; conditions: dosage 320 g/ha
Outline: as §2

[12] = tested on: Polygonum convolvulus (POLCO); assay: Post-emergence herbicidal action against POLCO; conditions: dosage 320 g/ha
Outline: as §1

Setaria viridis (SETVI) [13] = assay: Post-emergence herbicidal action against SETVI
Outline: as §1

Viola tricolor (VIOTR) [14] = assay: Pre-emergence herbicidal action against VIOTR
Outline: as §2

[15] = tested on: Alopecurus myosuroides (ALOMY); assay: Pre-emergence herbicidal action against ALOMY; conditions: 320 g/ha; scored visually after about 3 weeks; 100% = plants have died
Outline: as §2

[16] = tested on: Matricaria inodora (MATIN); assay: Pre-emergence herbicidal action against MATIN
Outline: as §2

[17] = tested on: Pharbitis purpurea (PHBPU); assay: Pre-emergence herbicidal action against PHBPU; conditions: dosage 320 g/ha
Outline: as §2

Setaria viridis (SETVI) [18] = assay: Pre-emergence herbicidal action against SETVI; conditions: dosage 320 g/ha
Outline: as §2

[19] = tested on: Triticum aestivum (TRZAS); conditions: crop plant compatibility, 80 g/ha, effect vs untreated controls
Outline: (§3)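 Foliar application at the one-leaf stage: WP/EC formulation, 0.5% additive, 600 l/ha water. Greenhouse-grown in sandy loam. Endpoint is visual % injury relative to untreated controls at about 3 weeks.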

Oryza sativa (ORYSA) = conditions: crop plant compatibility, 80 g/ha, effect in comparison to untreated controls
Outline: as §3

Avena fatua (AVEFA) = assay: Post-emergence herbicidal action against AVEFA; conditions: 320 g/ha, visual rating about 3 weeks after treatment
Outline: as §1

[20] = tested on: Matricaria inodora (MATIN); assay: Post-emergence herbicidal action against MATIN; conditions: dosage 320 g/ha
Outline: as §1

Zea mays (ZEAMX) [21] = conditions: crop plant compatibility, 80 g/ha, effect vs untreated controls
Outline: as §3

Lolium rigidum (LOLRI) [22] = assay: Post-emergence herbicidal action against LOLRI; conditions: dosage 320 g/ha
Outline: as §1

[23] = tested on: Alopecurus myosuroides (ALOMY); assay: Post-emergence herbicidal action against ALOMY; conditions: 320 g/ha, visual rating about 3 weeks after treatment vs untreated controls (100% = plants have died, 0% = like control plants)
Outline: as §1

Lolium rigidum (LOLRI) [24] = assay: Pre-emergence herbicidal action against LOLRI; conditions: dosage 320 g/ha
Outline: as §2

[25] = 320 g/ha, visual rating about 3 weeks after treatment
[26] = 80 g/ha, visual rating about 3 weeks after treatment vs untreated controls (100% = plants have died, 0% = like control plants)

Row | SMILES | Post-emergence action against PHBPU in % [1] | Post-emergence action against VERPE in % [2] | Post-emergence action against ECHCG in % ([3]; dosage 80 g/ha) | Post-emergence action against ECHCG in % ([3]; dosage 320 g/ha) | Post-emergence action against VIOTR in % (Viola tricolor (VIOTR) [4]; 80 g/ha) | Post-emergence action against VIOTR in % (Viola tricolor (VIOTR) [4]; 320 g/ha) | Pre-emergence action against POLCO in % [6] | Pre-emergence action against AMARE in % ([8]; 320 g/ha) | Post-emergence action against AMARE in % [9, 25] | Pre-emergence action against ZEAMX in % (Zea mays (ZEAMX) [10]; 80 g/ha) | Pre-emergence action against ECHCG in % [11] | Post-emergence action against POLCO in % [12] | Post-emergence action against SETVI in % (Setaria viridis (SETVI) [13]; dosage 320 g/ha) | Pre-emergence action against ALOMY [15] | Pre-emergence action against MATIN in % ([16]; dosage 320 g/ha) | Pre-emergence action against SETVI in % (Setaria viridis (SETVI) [18]) | Post-emergence action against ORYSA in % (Oryza sativa (ORYSA)) | Post-emergence action against AMARE in % [9, 26] | Post-emergence action against MATIN in % [20] | Pre-emergence action against LOLRI in % (Lolium rigidum (LOLRI) [24]) | other results
1 | CCOC(=O)COc1nn(-c2ncccc2C(F)(F)F)c(-c2cncc(F)c2)c1Br [Example I-202] | 90% | 80% | 80% | 90% | 80% | 80% | 90% | 90% | 80% | 20% | 90% | 80% | 80% | 80% | 80% | 90% | 20% |  |  |  | Post-emergence action against ABUTH in % [5]: 80%; Pre-emergence action against VERPE in % ([7]; dosage 80 g/ha): 80%; Pre-emergence action against VERPE in % ([7]; dosage 320 g/ha): 90%; Pre-emergence action against VIOTR in % (Viola tricolor (VIOTR) [14]; 320 g/ha, Viola tricolor): 100%; Pre-emergence action against VIOTR in % (Viola tricolor (VIOTR) [14]; dosage 80 g/ha): 90%; Pre-emergence action against PHBPU in % [17]: 90%; Post-emergence action against TRZAS in % [19]: 20%
2 | CCOC(=O)COc1nn(-c2ccccn2)c(-c2ccc(F)nc2)c1F [Example I-305] | 90% | 90% | 90% | 90% |  |  |  | 90% | 90% | 0% | 90% | 80% | 90% | 90% | 90% | 90% |  | 80% | 80% | 90% | Pre-emergence action against AMARE in % ([8]; 80 g/ha): 80%; Post-emergence action against AVEFA in % (Avena fatua (AVEFA)): 80%; Pre-emergence action against MATIN in % ([16]; dosage 80 g/ha): 80%; Post-emergence action against ZEAMX in % (Zea mays (ZEAMX) [21]): 0%; Post-emergence action against LOLRI in % (Lolium rigidum (LOLRI) [22]): 90%; Post-emergence action against ALOMY in % [23]: 100%
3 | O=C(O)COc1nn(-c2ccccn2)c(-c2ccc(F)nc2)c1F [Example I-373] | 80% | 90% |  | 90% |  |  | 90% | 90% | 80% | 0% | 90% | 80% | 90% | 90% | 90% | 80% | 0% | 80% | 90% | 80% | Post-emergence action against ABUTH in % [5]: 80%; Pre-emergence action against ZEAMX in % (Zea mays (ZEAMX) [10]; 320 g/ha): 0%; Post-emergence action against ZEAMX in % (Zea mays (ZEAMX) [21]): 0%
4 | O=C(O)CSc1nn(-c2ccccn2)c(-c2cncc(F)c2)c1I [Example I-229] | 80% |  | 80% | 80% | 80% | 80% | 90% | 80% | 80% | 0% | 90% | 80% | 80% |  | 80% | 90% | 0% | 80% | 80% | 80% | Post-emergence action against SETVI in % (Setaria viridis (SETVI) [13]; dosage 80 g/ha): 80%; Pre-emergence action against VIOTR in % (Viola tricolor (VIOTR) [14]; 320 g/ha, Viola tricolor): 90%
